Data taken from patent US8729035B2, “Synthesis of novel neamine derivatives and use thereof as antibacterial agents” (Universite Joseph Fourier, priority 2008, dated 2014).
Converted amounts (≈) assume the structure as drawn. Read-outs that look alike come from different tables or passages of the source.

Experiments:
Assay in all cases: MIC determination on r-methylase-expressing resistant Gram (-) bacteria
E. coli 06AB003 arm = format: cell-based; conditions: Escherichia coli, 06AB003ARM, 24 h
Description: (§1) The molecules were dissolved in water or DMSO at a concentration of 5 or 10 mg/mL, then the solutions were diluted if necessary. A volume of 200 μL of each of them was put onto a 96-well plate.
(§2) C—Determination of the MIC
(§3) The molecules with a screening score of 10 or 100 were selected to determine their MICs relative to the strains tested.
(§4) As for the validation of the strains, the solution of the molecule selected was diluted by a factor of 2, times 2, using the Biomek2000 robot in 96-well plates to cover a wide range of concentrations. To each of these wells was added a volume of inoculum made from the previous days preculture diluted to 1/100th strength. Each well was repeated. Again, controls of non-contamination, growth and resistance/sensitivity to a reference antibiotic were included in the experiment. The plate was incubated at 37° C., and the kinetics of the bacterial proliferation were monitored over 24 hours, by measuring the OD620 nm at 0, 1, 4, 7, and 24 hours.
(§5) The MIC was the lowest concentration found to be capable of inhibiting bacterial proliferation after 24 hours incubation. Having no previous idea of this value it was possible that it might not fall within the range of dilutions chosen. If this was the case the operation had to be repeated adjusting this range.
(§6) Similar measurements were made on various Gram (−) bacteria. The strains tested were provided by R. Vanhoof (E. coli PAZ505H8101 and L58058.1, P. aeruginosa ATCC 27853, Psa.F03, A. lwoffi A1.88-483), Y. Glupczynski (C. amalonaticus Ca06AB0010), J. C. Pechere (P. aeruginosa PA02, PA03), P. Plésiat (P. aeruginosa PA01, PA21, PA22), H. Schweizer (P. aeruginosa PA405, PA406).

[1] = test system: C. amalonaticus 06AB0010 arm; format: cell-based; conditions: Citrobacter amalonaticus, 06AB0010ARM
Description: as §1, §2, §3, §4, §5, §6

E. aerogenes 06AB008 arm = format: cell-based, Enterobacter aerogenes; conditions: Klebsiella aerogenes, 06AB008ARM, 24 h
Description: as §1, §2, §3, §4, §5, §6

What does the source list for NCC1OC(OC2C(N)CC(N)C(OCc3cccc4ccccc34)C2O)C(N)C(OCc2cccc3ccccc23)C1O (stereo not drawn) [3′,6-di1NM, 3′,6-O,O′-di(naphthyl-1-methylene) neamine]?
MIC (E. coli 06AB003 arm): 4 to 16 mg/L (≈ 6.64 to 26.5 µM); MIC ([1]; resistant bacteria expressing an RNA methylation enzyme (r-methylase), one value stated for the three strains together, 24 hours incubation, read-out: MIC): 4 to 16 mg/L (≈ 6.64 to 26.5 µM); MIC (E. aerogenes 06AB008 arm): 4 to 16 mg/L (≈ 6.64 to 26.5 µM)

Which MIC (E. coli 06AB003 arm) does the source give for NCC[C@H](O)C(=O)N[C@@H]1C[C@H](N)[C@@H](O[C@H]2O[C@H](CN)[C@@H](O)[C@H](O)[C@H]2O)[C@H](O)[C@H]1O[C@H]1O[C@H](CO)[C@@H](O)[C@H](N)[C@H]1O [amikacin] here?
Its MIC is > 128 mg/L.

What about the MIC ([1]; 24 h) of the same molecule?
Its MIC is > 128 mg/L.

And the MIC (E. aerogenes 06AB008 arm)?
Its MIC is > 128 mg/L.

Which results are given for NC[C@H]1O[C@H](O[C@H]2[C@H](O)[C@@H](O[C@H]3O[C@H](CO)[C@@H](O)[C@H](N)[C@H]3O)[C@H](N)C[C@@H]2N)[C@H](N)C[C@@H]1O [tobramycin]?
MIC (E. coli 06AB003 arm): > 128 mg/L; MIC ([1]; 24 h): > 128 mg/L; MIC (E. aerogenes 06AB008 arm): > 128 mg/L
